In patent publication US20060104944A1, “Activators and inhibitors of protease activated receptor2 (PAR2) and methods of use” (priority 2004, published 2006):
No end group written: not given here. *: point of attachment. tc = trans-cinnamoyl N-cap, O=C(/C=C/c1ccccc1)*; code O = not defined here

Assays:
[1] = system: chick chorioallantoic membrane (CAM); test: Neovascularization in the chick chorioallantoic membrane (CAM) model; type: in vivo; settings: Table 5; for Mean % Inhibition ± SEM: inhibition of PAR-2 (SEQ ID NO: 3, 0.3 ug/ml) stimulated angiogenesis, inhibitor doses as E12
[2] = system: chick chorioallantoic membrane (CAM); test: as above; type: in vivo; settings: for PAR2-induced angiogenesis in the CAM model: in words, FIG. 3, Table 5; for Branch Points ± SEM: Table 3, agent alone: FGF2 1 ug/ml, VEGF 2 ug/ml, PAR-1 3 ug, PAR-2 0.3 ug, n = 8; for Mean Number of Branch Points ± SD: Table 4, agent alone: FGF2 1.0 μg, PAR2 agonist 5.0 μg, TF/factor VIIa, N = 16
Protocol: In vivo neovascularization was examined by the method previously described by Auerbach et al. (Auerbach et al., J. Dev. Biol., 41:391-394 (1974), which is hereby incorporated by reference in its entirety). Ten-day old embryos were purchased from Spafas, Inc. (Preston, Conn.) and were incubated at 37° C. with 55% relative humidity. In the dark with the help of a candling lamp, a small hole was punctured in the shell concealing the air sac with a hypodermic needle. A second hole was punctured in the shell on the broadside of the egg directly over an avascular portion of the embryonic membrane, as observed during candling. A false air sac was created beneath the second hole by the application of negative pressure to the first hole, which caused the chorioallantoic membrane (CAM) to separate from the shell. A window, approximately 1.0 cm^2, was cut in the shell over the dropped CAM with the use of a small crafts grinding wheel (Dremel, Division of Emerson Electric Company Racine, Wisconsin) which allowed direct access to the underlying CAM. Filter disks of #1 filter paper (Whatman International, United Kingdom) were soaked in 3 mg/ml cortisone acetate (Sigma, St. Louis, Mo.) in a solution of 95% ethanol and water and subsequently air dried under sterile conditions. FGF2 (Life Technologies, Gaithersburg, Md.) was used to grow vessels on the CAMs of 10 day old chick embryos. Sterile filter disks adsorbed with FGF2 dissolved in PBS at 1 μg/ml were placed on growing CAMs. […] At 24 h, test compounds or control vehicle was added directly to CAM topically.
(§1) CAM tissue directly beneath FGF2-saturated filter disk was resected from embryos treated 48 hours prior with test compound or control. Tissues were washed three times with PBS. Sections were placed in a 35-mm petri dish (Nalge Nunc, Rochester, N.Y.) and examined under a SV6 stereomicroscope (Karl Zeiss, Thornwood, N.Y.) at 50× magnification. Digital images of CAM sections adjacent to filters were collected using a 3-CCD color video camera system (Toshiba America, New York, N.Y.) and analyzed using Image-Pro Plus software (Media Cybernetics, Silver Spring, Md.).
as §1, with “48 h” for “48 hours”, “with” for “with test”, “analyzed with the” for “analyzed using”

PAR-1 [3] = target: T1, PAR-1 (Homo sapiens, UniProt P25116); settings: PAR-1 antagonist, variety of bioassays; cited from earlier work
T1 sequence (P25116 22-425): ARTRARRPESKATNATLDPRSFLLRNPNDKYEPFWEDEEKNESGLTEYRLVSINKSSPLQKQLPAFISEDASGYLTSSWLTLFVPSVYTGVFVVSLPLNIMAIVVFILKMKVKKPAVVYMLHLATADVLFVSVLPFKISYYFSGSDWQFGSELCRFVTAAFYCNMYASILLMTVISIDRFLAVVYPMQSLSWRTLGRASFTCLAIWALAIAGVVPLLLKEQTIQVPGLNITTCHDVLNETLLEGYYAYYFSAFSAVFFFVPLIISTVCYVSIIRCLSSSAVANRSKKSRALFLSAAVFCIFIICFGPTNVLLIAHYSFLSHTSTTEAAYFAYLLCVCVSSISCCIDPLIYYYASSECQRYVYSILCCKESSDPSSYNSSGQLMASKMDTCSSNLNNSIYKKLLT

PAR-2 [4] = target: T2, PAR-2 (Homo sapiens, UniProt P55085); settings: in words; cited from earlier work
T2 sequence (P55085 26-397): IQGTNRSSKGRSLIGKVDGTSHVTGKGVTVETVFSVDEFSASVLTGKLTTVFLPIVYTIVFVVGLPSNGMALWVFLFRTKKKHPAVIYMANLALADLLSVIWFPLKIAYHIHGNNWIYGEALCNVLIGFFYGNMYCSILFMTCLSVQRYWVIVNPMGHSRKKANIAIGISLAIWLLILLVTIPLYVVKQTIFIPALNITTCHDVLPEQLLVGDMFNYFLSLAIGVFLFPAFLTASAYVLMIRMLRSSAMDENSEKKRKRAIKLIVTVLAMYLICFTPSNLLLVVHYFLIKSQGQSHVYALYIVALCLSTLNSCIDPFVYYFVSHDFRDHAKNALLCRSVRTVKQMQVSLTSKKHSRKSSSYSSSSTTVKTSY

[5] = system: Human umbilical vein endothelial cells (HUVEC); test: Endothelial cell tube formation on Matrigel; type: cell-based; settings: agent alone; FGF2 0.1 μg, PAR2 agonist 0.25 μg; n = 3
Protocol: Differentiation by endothelial cells was examined using a method developed by Grant et al. (Grant et al., In Vitro Cell Dev. Biol., 27A:327-336 (1991), which is hereby incorporated by reference in its entirety). Matrigel® matrix, phenol-red free (commercially available from Becton Dickinson, Bedford, Mass.) was thawed overnight at 4° C. Using cold pipette tips, 3.0 mg/well of Matrigel® matrix was placed in a cold twenty-four-multiwell plate (Falcon). Matrigel® matrix was allowed to polymerize during incubation at 37° C. for 30 minutes.
Human umbilical vein endothelial cells (HUVEC) were maintained at 37° C. with 5% CO2 and 95% humidity in endothelial cell growth medium with 2% fetal bovine serum (EGM). The tube assay was performed in endothelial cell basal medium (EBM) supplemented with 0.5% bovine serum albumin (BSA) and 1:100 diluted Insulin-Transferrin-Selenium-G supplement (I-T-Se, 100×). HUVEC were trypsinized, centrifuged, and, subsequently, washed twice in phosphate buffered saline (PBS). […] Digital images of micro-titer well sections were collected using a DKC5000 3-CCD color video camera system (Toshiba America, New York, N.Y.) and analyzed using Image-Pro Plus software (Media Cybernetics, Silver Spring, Md.). The area and major axis length of stained cells having a tubular morphology was measured on the Matrigel® matrix surface (Becton Dickinson, Bedford, Pa.).

PAR-1 [6] = target: T1, PAR-1; settings: at PAR-1; in words; cited from earlier work
rat aorta = settings: in words; cited from earlier work
[7] = system: Human dermal micro-vascular endothelial cells (HDMEC); test: In vitro 3D sprout angiogenesis (vessel tube length) assay; type: cell-based; settings: agent alone, 1 ug
Protocol: Culture of HDMEC on micro-carrier beads: 80% confluent HDMEC (Passage 5-10) were mixed with gelatin-coated Cytodex-3 beads with a ratio of 40 cells per bead. Suspend cells and beads (150-200 beads per well for 24-well plate) with 5 ml EBM+15% normal human serum, mix gently every one hour for first four hours, then leave the mixture culture in CO2 incubator overnight. The next morning, add 10 ml of fresh EBM+15% HS and culture for another three hours. Before experiments, check the culture of EC-beads. Add 500 μl of PBS in a well of 24-well plate, take 100 ul of the EC-bead culture solution, and add it to the PBS, observe and count the number of beads, calculate the concentration of EC-beads. The EC-beads are good for experiments for 48 hours.
Prepare fibrinogen solution (1 mg/ml) in EBM medium with or without angiogenesis factors or testing factors. For positive control, use 30 ng/ml VEGF+25 ng/ml FGF2. Wash EC-beads with EBM medium for two times and add EC-beads to fibrinogen solution. For each condition, do experiment in triplicates. Mix the EC-beads in fibrinogen solution gently and add 2.5 μl human thrombin (0.05 U/μl) in 1 ml fibrinogen solution, immediately transfer 300 ul to each well of 24-well plate. The fibrinogen solution will polymerize in 5-10 minutes, after 20 minutes, add EBM+20% normal human serum+10 μg/ml Aprotinin. Incubate the plate in CO2 incubator. […]

PAR-2 [8] = target: T2, PAR-2; settings: at PAR-2; in words; cited from earlier work
[9] = system: isolated blood vessel preparations; settings: in words, cited from earlier work
[10] = PAR-2 (SEQ ID NO: 3, 0.3 ug/ml) + inhibitor: XT199 10 ug, anti-VII/VIIa 3 ug, PD98059 5 ug, Hirudin 1 U, PAR-2 mAb 3 ug, anti-TF mAb 2 ug

COc1cccc(-c2cc(=O)c3ccccc3o2)c1N [PD98059]
Mean Branch points ± SEM [1, 10]: 102 ± 9
Mean % Inhibition ± SEM [1]: 88 ± 12%
PAR2-induced angiogenesis in the CAM model [2]: blocked

NCC[C@H](NC(=O)[C@H](Cc1ccc(F)c(F)c1)NC(=O)Nc1ccc2c(CN3CCCC3)cn(Cc3c(Cl)cccc3Cl)c2c1)C(=O)NCc1ccccc1 [RWJ-56110]
IC50 (PAR-1 [3]): 100 to 500 nM
activity as a PAR-2 antagonist (PAR-2 [4]): inactive

FGF2: human fibroblast growth factor basic
Mean Endothelial tube length (mm) ± SD [5]: 64 ± 5 mm
increase in angiogenesis index ([2]; 1 μg of FGF2): 2-3 fold
Branch Points ± SEM [2]: 182 ± 11
Mean Number of Branch Points ± SD [2]: 198 ± 14

FSLLRY [FSLLRY-NH2, PAR2 antagonist]
agonistic activity (PAR-1 [6]): lack agonistic activity
trypsin relaxant activity (rat aorta): antagonize

HOOC-L-I-G-R-L-O-NH2 (LIGRL-{code O-NH2}; reading uncertain; also: 'HOOC-' written at N-terminus) [SEQ ID NO: 3]
Mean Branch points ± SEM ([1]; PAR-2 agonist alone, 0.3 ug/ml, n = 8): 176 ± 14
Mean Branch points ± SEM ([1]; PAR-2 agonist alone, 0.3 ug/ml, n = 8, listed as PAR-2): 186 ± 17

HOOC-S-L-I-G-K-V-NH2 (SLIGKV-NH2; also: 'HOOC-' written at N-terminus) [SEQ ID NO: 5]
Vessel Length(mm) ± SEM [7]: 1.39 ± 0.28 mm
Branch Points ± SEM [2]: 197 ± 15
Mean Number of Branch Points ± SD [2]: 205 ± 8

HOOC-S-L-I-G-R-L-NH2 (SLIGRL-NH2; also: 'HOOC-' written at N-terminus) [SEQ ID NO: 4]
Mean Endothelial tube length (mm) ± SD [5]: 58 ± 4 mm

Hirudin
Mean Branch points ± SEM [1, 10]: 174 ± 9
Mean % Inhibition ± SEM [1]: 3 ± 8%
PAR2-induced angiogenesis in the CAM model [2]: not

LSIGRL [LSIGRL-NH2, PAR2 antagonist]
agonistic activity (PAR-2 [8]): lack agonistic activity

TFLLRN [SEQ ID NO: 6, PAR1 agonist peptide used for comparison]
Vessel Length(mm) ± SEM [7]: 0.88 ± 0.08 mm
Branch Points ± SEM [2]: 101 ± 7

VEGF
Branch Points ± SEM [2]: 168 ± 10

tc-LIGRLO (tc-LIGRL-{code O}; reading uncertain; also: printed as tc-LIGRLO)
activity in the relaxation assay ([9]; compared with SLIGRL): equally active
contraction [9]: does not cause contraction
